Assay results as given in ChEMBL document CHEMBL1158562, “Design, synthesis and structure-activity relationships of novel biarylamine-based Met kinase inhibitors” (Bioorg Med Chem Lett, 2010).
Calls of active or inactive are those of the source. The rule behind the calls is not given here.

How the values were obtained:
[1] = Antiproliferative activity against human GTL16 cells after 72 hrs by tetrazolium-based colorimetric assay; conditions: GTL 16, 72 h
[2] = molecular target: Hepatocyte growth factor receptor (Homo sapiens, UniProt P08581); assay: Inhibition of GST-tagged human recombinant c-met N terminal domain expressed in Hi5 insect cells after 60 mins by liquid scintillation counting
Hepatocyte growth factor receptor, sequence (P08581 whole entry, the tested form may be a part): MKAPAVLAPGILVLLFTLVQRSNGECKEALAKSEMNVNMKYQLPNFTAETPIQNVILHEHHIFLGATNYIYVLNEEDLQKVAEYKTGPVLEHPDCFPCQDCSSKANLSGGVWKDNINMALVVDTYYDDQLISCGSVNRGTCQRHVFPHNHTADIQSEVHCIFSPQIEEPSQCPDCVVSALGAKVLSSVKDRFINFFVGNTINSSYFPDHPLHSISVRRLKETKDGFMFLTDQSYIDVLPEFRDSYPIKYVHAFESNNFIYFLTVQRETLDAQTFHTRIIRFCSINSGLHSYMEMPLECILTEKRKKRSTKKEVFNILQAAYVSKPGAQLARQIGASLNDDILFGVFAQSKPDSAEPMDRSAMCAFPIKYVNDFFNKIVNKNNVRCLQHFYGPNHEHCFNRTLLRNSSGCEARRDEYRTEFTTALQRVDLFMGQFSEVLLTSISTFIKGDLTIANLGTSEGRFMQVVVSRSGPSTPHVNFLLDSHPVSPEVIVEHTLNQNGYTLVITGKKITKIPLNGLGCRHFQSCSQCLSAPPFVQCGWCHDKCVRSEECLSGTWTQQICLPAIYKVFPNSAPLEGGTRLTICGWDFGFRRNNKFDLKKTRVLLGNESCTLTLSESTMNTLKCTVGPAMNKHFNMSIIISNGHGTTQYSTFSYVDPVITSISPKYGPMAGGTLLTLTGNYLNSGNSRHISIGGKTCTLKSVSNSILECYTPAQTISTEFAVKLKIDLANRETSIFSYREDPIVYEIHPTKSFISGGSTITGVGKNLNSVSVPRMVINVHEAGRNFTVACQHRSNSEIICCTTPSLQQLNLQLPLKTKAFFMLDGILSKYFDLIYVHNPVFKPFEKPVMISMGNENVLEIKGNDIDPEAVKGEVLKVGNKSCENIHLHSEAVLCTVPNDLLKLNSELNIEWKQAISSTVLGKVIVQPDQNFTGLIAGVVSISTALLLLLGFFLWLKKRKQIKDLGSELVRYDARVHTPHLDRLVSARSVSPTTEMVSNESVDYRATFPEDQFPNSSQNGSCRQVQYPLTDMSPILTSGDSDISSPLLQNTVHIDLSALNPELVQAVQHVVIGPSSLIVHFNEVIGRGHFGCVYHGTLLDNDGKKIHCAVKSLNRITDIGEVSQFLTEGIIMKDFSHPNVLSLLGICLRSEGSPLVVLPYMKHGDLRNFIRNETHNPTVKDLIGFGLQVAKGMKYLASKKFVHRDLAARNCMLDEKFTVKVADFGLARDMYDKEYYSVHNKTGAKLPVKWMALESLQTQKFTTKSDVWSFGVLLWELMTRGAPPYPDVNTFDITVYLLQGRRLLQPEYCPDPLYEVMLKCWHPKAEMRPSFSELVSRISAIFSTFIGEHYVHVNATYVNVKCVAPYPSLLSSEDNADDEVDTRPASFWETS

[3] = Cmax in mouse at 50 mg/kg, po for 8 hrs; assay type: ADME, organism-based; set-up: dose 50 mg/kg, route oral; conditions: in vivo
[4] = AUC (0 to 8 hrs) in mouse at 50 mg/kg, po; assay type: ADME, organism-based; set-up: time < 8 hr, dose 50 mg/kg, route oral; conditions: plasma
GTL 16 [5] = assay: Antitumor activity against human GTL16 cells xenografted in anthymic mouse administered po qd for 15 days; assay type: functional, organism-based
GTL 16 [6] = assay: Antitumor activity against human GTL16 cells xenografted in anthymic mouse assessed as complete tumor stasis at 25 mg/kg, po qd for 15 days; assay type: functional, organism-based; set-up: dose 25 mg/kg
[7] = molecular target: T1, Receptor-type tyrosine-protein kinase FLT3 (Homo sapiens, UniProt P36888); assay: Inhibition of FLT3
T1 sequence (P36888 whole entry): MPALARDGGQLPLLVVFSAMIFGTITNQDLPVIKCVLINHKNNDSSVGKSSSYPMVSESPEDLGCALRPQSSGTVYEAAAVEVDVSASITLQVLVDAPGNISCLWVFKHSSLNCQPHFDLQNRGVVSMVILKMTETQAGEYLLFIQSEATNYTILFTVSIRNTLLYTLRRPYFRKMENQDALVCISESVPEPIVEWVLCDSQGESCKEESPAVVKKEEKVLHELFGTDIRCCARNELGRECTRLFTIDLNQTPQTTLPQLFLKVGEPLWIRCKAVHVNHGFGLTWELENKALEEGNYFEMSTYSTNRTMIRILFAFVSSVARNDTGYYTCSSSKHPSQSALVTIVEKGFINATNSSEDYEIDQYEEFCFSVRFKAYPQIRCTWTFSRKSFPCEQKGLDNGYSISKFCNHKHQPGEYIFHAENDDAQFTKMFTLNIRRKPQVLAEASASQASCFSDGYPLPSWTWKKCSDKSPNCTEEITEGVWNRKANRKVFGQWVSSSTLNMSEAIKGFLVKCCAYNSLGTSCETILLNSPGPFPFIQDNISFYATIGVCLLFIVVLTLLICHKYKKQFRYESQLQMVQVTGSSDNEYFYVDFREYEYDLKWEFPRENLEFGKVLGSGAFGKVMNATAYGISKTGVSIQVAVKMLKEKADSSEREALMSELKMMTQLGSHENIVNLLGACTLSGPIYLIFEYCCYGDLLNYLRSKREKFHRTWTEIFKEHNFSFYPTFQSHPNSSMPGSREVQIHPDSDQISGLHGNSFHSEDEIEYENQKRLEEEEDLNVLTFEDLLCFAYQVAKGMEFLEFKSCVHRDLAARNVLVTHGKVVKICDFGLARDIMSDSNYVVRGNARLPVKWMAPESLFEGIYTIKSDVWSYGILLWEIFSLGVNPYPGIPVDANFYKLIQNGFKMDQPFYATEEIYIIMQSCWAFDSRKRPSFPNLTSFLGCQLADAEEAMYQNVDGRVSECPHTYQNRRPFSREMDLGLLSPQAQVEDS

[8] = molecular target: High affinity nerve growth factor receptor (Homo sapiens, UniProt P04629); assay: Inhibition of TrkA
High affinity nerve growth factor receptor, sequence (P04629 whole entry): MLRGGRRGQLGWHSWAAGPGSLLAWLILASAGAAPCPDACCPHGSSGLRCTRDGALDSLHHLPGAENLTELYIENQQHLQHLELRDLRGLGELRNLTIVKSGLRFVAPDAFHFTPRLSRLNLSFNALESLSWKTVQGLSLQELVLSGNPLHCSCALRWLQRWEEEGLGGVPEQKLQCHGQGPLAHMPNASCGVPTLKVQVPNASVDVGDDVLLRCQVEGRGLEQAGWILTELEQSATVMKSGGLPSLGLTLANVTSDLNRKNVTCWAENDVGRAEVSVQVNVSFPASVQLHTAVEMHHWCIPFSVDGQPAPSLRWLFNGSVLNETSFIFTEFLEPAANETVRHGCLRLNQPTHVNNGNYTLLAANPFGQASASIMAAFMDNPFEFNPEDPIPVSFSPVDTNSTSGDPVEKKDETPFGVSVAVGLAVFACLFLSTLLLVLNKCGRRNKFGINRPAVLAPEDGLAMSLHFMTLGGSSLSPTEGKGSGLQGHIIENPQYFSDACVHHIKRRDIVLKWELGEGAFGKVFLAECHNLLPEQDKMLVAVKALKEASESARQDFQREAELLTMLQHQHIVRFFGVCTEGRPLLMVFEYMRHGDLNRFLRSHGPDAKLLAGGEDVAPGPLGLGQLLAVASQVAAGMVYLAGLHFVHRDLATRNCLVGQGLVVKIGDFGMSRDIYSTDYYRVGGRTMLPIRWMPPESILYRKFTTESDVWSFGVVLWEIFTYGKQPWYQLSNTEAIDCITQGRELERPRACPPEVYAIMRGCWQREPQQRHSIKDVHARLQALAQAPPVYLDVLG

[9] = molecular target: Tyrosine-protein kinase Lck (Homo sapiens, UniProt P06239); assay: Inhibition of LcK
Tyrosine-protein kinase Lck, sequence (P06239 whole entry): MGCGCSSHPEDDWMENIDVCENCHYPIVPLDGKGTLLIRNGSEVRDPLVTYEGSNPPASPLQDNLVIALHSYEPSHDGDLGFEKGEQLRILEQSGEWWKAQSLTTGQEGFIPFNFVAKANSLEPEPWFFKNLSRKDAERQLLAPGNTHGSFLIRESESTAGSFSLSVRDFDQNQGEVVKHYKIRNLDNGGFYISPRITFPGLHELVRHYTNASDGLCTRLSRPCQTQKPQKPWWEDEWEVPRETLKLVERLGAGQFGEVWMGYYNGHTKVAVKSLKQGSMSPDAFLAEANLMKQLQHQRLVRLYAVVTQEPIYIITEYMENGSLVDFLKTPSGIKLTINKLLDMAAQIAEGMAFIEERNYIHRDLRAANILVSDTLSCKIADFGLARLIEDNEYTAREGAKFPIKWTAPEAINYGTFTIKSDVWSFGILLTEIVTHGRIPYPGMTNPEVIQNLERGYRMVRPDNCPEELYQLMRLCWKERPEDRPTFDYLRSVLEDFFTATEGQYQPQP

Insulin receptor = Insulin receptor (Homo sapiens, UniProt P06213); assay: Inhibition of InsR
[10] = molecular target: MAP kinase-activated protein kinase 2 (Homo sapiens, UniProt P49137); assay: Inhibition of MK2
MAP kinase-activated protein kinase 2, sequence (P49137 whole entry): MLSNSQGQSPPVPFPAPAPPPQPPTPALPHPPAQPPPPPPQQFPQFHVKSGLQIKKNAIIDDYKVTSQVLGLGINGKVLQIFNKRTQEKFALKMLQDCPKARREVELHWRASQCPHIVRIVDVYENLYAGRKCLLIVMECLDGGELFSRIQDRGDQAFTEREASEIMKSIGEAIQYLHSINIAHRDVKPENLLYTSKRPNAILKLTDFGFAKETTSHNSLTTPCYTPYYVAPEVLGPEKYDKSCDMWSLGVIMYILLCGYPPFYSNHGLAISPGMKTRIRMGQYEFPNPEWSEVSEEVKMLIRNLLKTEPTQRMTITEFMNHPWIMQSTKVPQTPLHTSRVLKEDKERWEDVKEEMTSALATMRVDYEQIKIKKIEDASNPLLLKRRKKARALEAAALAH

[11] = Inhibition of CDK2E
[12] = molecular target: Protein kinase C alpha type (Homo sapiens, UniProt P17252); assay: Inhibition of PKCalpha

| SMILES | IC50 [1] | further results |
| --- | --- | --- |
| CN(C(=O)c1cccnc1Nc1ccc(Oc2ccnc3[nH]ccc23)c(F)c1)c1ccc(F)cc1 | 5.58 µM | – |
| O=C(Nc1ccc(F)cc1F)c1cnccc1Nc1ccc(Oc2ccnc3[nH]ccc23)c(F)c1 | > 10 µM | – |
| O=C(Nc1ccc(F)cc1F)c1nccnc1Nc1ccc(Oc2ccnc3[nH]ccc23)c(F)c1 | 7.15 µM | – |
| O=C(Nc1ccc(F)cc1F)c1cc(Br)cnc1Nc1ccc(Oc2ccnc3[nH]ccc23)c(F)c1 | 0.64 µM | – |
| Nc1cc(Oc2ccc(Nc3nccnc3C(=O)Nc3ccc(F)cc3F)cc2F)ccn1 | 2.73 µM | – |
| Nc1cc(Oc2ccc(Nc3ncncc3C(=O)Nc3ccc(F)cc3F)cc2F)ccn1 | 1.93 µM | – |
| CN(C)c1ncc(C(=O)Nc2ccc(F)cc2F)c(Nc2ccc(Oc3ccnc(N)c3)c(F)c2)n1 | > 10 µM | – |
| O=C(Nc1ccccc1)c1cccnc1Nc1ccc(Oc2ccnc3[nH]ccc23)c(F)c1 | 0.46 µM | – |
| Cc1ccccc1NC(=O)c1cccnc1Nc1ccc(Oc2ccnc3[nH]ccc23)c(F)c1 | 0.42 µM | – |
| Nc1cc(Oc2ccc(Nc3ncccc3C(=O)Nc3ccc(F)cc3F)cc2F)ccn1 | 0.9 µM | – |
| CSc1ncc(C(=O)Nc2ccc(F)cc2F)c(Nc2ccc(Oc3ccnc(N)c3)c(F)c2)n1 | 0.44 µM | – |
| Nc1cc(Oc2ccc(Nc3ncc(Br)cc3C(=O)Nc3ccc(F)cc3F)cc2F)ccn1 | 0.59 µM | – |
| Nc1cc(Oc2ccc(Nc3ncccc3C(=O)Nc3ccc(Cl)cc3)cc2F)ccn1 | 1.16 µM | – |
| Cc1ccc(C(=O)Nc2ccc(F)cc2F)c(Nc2ccc(Oc3ccnc4[nH]ccc34)c(F)c2)n1 | 2.4 µM | – |
| O=C(Nc1ccc(F)cn1)c1cccnc1Nc1ccc(Oc2ccnc3[nH]ccc23)c(F)c1 | 0.27 µM | – |
| O=C(Nc1ccccc1Cl)c1cccnc1Nc1ccc(Oc2ccnc3[nH]ccc23)c(F)c1 | 1.2 µM | – |
| O=C(Nc1ccc(F)cc1F)c1cccnc1Nc1ccc(Oc2ccnc3[nH]ccc23)c(F)c1 | 0.21 µM | IC50 [2]: 0.007 µM; Cmax [3]: 9.3 µM; AUC(0-t) at 8 h [4]: 42 µM·h; Activity (GTL 16 [5]): Dose-dependent effect; Activity (GTL 16 [6]): Active; IC50 [7]: 0.12 µM; IC50 [8]: 0.35 µM; IC50 [9]: > 50 µM; IC50 (Insulin receptor): > 50 µM; IC50 [10]: > 50 µM; IC50 [11]: > 50 µM; IC50 [12]: > 50 µM |
| O=C(Nc1ccccc1CCO)c1cccnc1Nc1ccc(Oc2ccnc3[nH]ccc23)c(F)c1 | 0.4 µM | – |
